Test results as given in PubChem BioAssay (NCI).
Where “and” joins values, the source holds several entries; their conditions need not be identical. Equal values may be shown once.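 Values below derive from 48-hour exposures of cells grown in 96-well plates, with endpoints linearly interpolated between the two concentrations bracketing the appropriate inhibition level. GI50 marks 50% less growth. TGI: total growth inhibition.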

Legend:
Test in all cases: NCI tumour cell line growth inhibition, 48 h
786-0 renal = test system: 786-0 renal
A549 NSCLC = test system: A549 NSCLC
DU-145 prostate = test system: DU-145 prostate
HCT-15 colon = test system: HCT-15 colon
HT29 colon = test system: HT29 colon
SF-539 CNS = test system: SF-539 CNS
SK-MEL-2 melanoma = test system: SK-MEL-2 melanoma
UACC-257 melanoma = test system: UACC-257 melanoma
SNB-75 CNS = test system: SNB-75 CNS
T-47D breast = test system: T-47D breast

Structure (SMILES)	TGI (786-0 renal)	TGI (A549 NSCLC) [µM]	TGI (DU-145 prostate) [µM]	TGI (HCT-15 colon) [µM]	TGI (HT29 colon) [µM]	TGI (SF-539 CNS) [µM]	TGI (SK-MEL-2 melanoma) [µM]	TGI (UACC-257 melanoma) [µM]	TGI (SNB-75 CNS) [µM]	TGI (T-47D breast) [µM]	GI50 (A549 NSCLC) [µM]	GI50 (DU-145 prostate) [µM]	GI50 (HCT-15 colon) [µM]	GI50 (HT29 colon) [µM]	GI50 (SF-539 CNS) [µM]	GI50 (SK-MEL-2 melanoma) [µM]	GI50 (SNB-75 CNS) [µM]	GI50 (T-47D breast) [µM]	GI50 (UACC-257 melanoma) [µM]
CC(=O)C(C(C)=O)[C@@H]1OC(C)(C)O[C@@H]1[C@H]1COC(C)(C)O1	> 100 µM	> 100	> 100	> 100	> 100	> 100	> 100	> 100											
Cc1ccc(-c2cc[n+]3c(n2)oc2ccccc23)cc1	29.5 µM	> 100	> 100	> 100		58.6	46.6	59.2	65.3	> 100									
CC1SC2(CCCCC2)N(NC(=O)CSc2nc3ccc(Cl)cc3c(=O)n2-c2ccccc2)C1=O (stereo unspecified)	34.9 µM	> 100	85.8	45.2	33	33	31.8	55.5	50.4	> 100									
O=C(c1cccnc1)N1N=C(c2ccccc2)CC1(O)c1cc(F)c(Cl)cc1Cl (stereo unspecified)	53.6 µM	> 100	> 100	93.4	> 100	32.3	45.8	39.7	52.9	62.4									
CCCCCCCCCCCCCCCCCCNC(=S)/N=C/c1c(O)c2ccccc2[nH]c1=O	29.8 µM	47.6	29.7	29.4	30.9	43.1	52.2	37.1	28	90.5									
Cc1ccc(N=Nc2c(O)ccc3cc(S(=O)(=O)O)ccc23)cc1	> 100 µM and 25.2 µM	> 100	> 100	> 100	> 100	> 100	> 100	> 100	> 100	> 100									
Cn1c2ccccc2c2cc(N3CCCC3)c3c(c21)C(=O)N(c1ccccc1)C3=O	95.5 µM	> 100	> 100	> 100	> 100			> 100	> 100	> 100									
S=c1nc(N/N=C/c2cccs2)c2cn[nH]c2[nH]1	> 100 µM	14.5	> 100	64.1	> 100	> 100	> 100	> 100	> 100	> 100									
CN(CCCNC(=O)c1nn(C)c2c1Cc1ccccc1-2)CCCNC(=O)c1nn(C)c2c1Cc1ccccc1-2	24.5 µM	33.3	32.4	40.4	31.6	33.9	32	30.1	31.5	61.8									
Cc1nc2ccc(F)cc2c(Cl)c1CCCl	> 100 µM	> 100	> 100	> 100	> 100	> 100		> 100	> 100	> 100									
C=C(C)[C@H]1C2=CC(C)=C(O2)[C@@H](O)[C@H](C(=C)C)CCC2=C[C@H]1OC2=O	> 100 µM	> 100	> 100	> 100		> 100	> 100	> 100	> 100	> 100									
Cc1cc2n[n+]3[n-]cc(-c4ccccc4)n3c2cc1[N+](=O)[O-]	> 100 µM	> 100	> 100	> 100		> 100	> 100	> 100	> 100	> 100									
O=C(c1cccs1)N1CCCN(C(=O)c2cccs2)C1=S	> 100 µM		> 100	> 100	> 100	> 100	> 100	> 100		> 100									
Cc1cc(OCCOCCC(F)(F)P(=O)(O)O)ccc1CCc1cnc2c(N)nc3cc(CCC(=O)O)ccc3c2c1		> 100	> 100	> 100	> 100	> 100	> 100	> 100	> 100	> 100	> 100	> 100	> 100	> 100	> 100	> 100	14	> 100	> 100
COC1=C(C)C(=O)C2=C(C1=O)C1C3CC4=C(C(=O)C(OC)=C(C)C4=O)C(CNC(=O)C(C)O)N3C(C#N)C(C2)N1C (stereo unspecified)	1.24 µM		0.0566	10.5	< 0.01	< 0.0117	< 0.01	0.0102	0.0171	< 0.01									
O=C(Nc1ccccc1Cl)c1ccc([N+](=O)[O-])cc1	> 100 µM	> 100		> 100	> 100	> 100	> 100	> 100	47.5										
N/C(=N\Nc1ccc(Cl)cc1)c1cnccn1	> 100 µM	> 100	> 100	> 100	> 100		> 100	> 100	> 100	> 100									
COc1cc(C2C3=C(CCCC3=O)N(c3ccc(C)cc3)C3=C2C(=O)CCC3)c([N+](=O)[O-])cc1OC	> 100 µM	> 100		> 100	> 100	> 100			> 100										
CCOC(=O)C(=CNC(=S)N=Nc1c(O)[nH]c2ccccc12)C(=O)OCC	> 100 µM	> 100	> 100		> 100	> 100	> 100	> 100	> 100	> 100									
CCN(CC)CCn1c(=O)c2c(C)c3oc4ccccc4oc3c(C)c2c1=O	> 100 µM	> 100		> 100	> 100	> 100	> 100	> 100	> 100										
O=C(CN1CCCCC1)Nc1ccc2c(c1)C1Oc3ccccc3CC1CO2 (stereo unspecified)	45.8 µM	> 100	> 100	35.1	29.1	36	35.5	36		52									
